Experimental findings from patent publication US10421774B2 (priority 2016, dated 2019) are described below.

Read-outs that look alike come from different tables or passages of the source.

Holding throughout (test): microbe, parasite or virus in culture
What all share (format): cell-based, HIV-1

In assay [1] the test system is NLRepRlucP373S recombinant wild type (WT) virus. The procedure, abridged:
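Multiple-cycle assay: luciferase-normalized NL4-3-derived NLRepRlucP373S (Renilla luciferase in place of nef) infects MT-2 cells, 10,000 cells/well, with 3-fold compound dilutions at 1% DMSO, 4-5 days, 37 °C. EC50 and EC90 fitted by median effect equation against Renilla luminescence, with residual signal under 3 μM NFV as background.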

For assay [2], the system named is A364V site directed mutant virus. The note with it: for EC50: Human immunodeficiency virus 1, MT2, read-out: A364V EC50. In outline:
(§1)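 Virus yield quantified by Renilla luciferase after 4–5 day culture at 37°C of MT-2 cells (10,000/well) with 3-fold serially diluted compound at 1% final DMSO. Reporter viruses were NL4-3 P373S derivatives bearing Gag A364V or V370A/ΔT371, inputs matched on luciferase endpoint.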

Another assay deals with gag V370A/ΔT371 virus. Conditions: for EC50: Human immunodeficiency virus 1, MT2, read-out: V370A/ΔT371 EC50. The procedure, abridged: as §1
The subject of assay [3] is T332S/V362I/Pr R41G virus. Conditions: for EC50: Human immunodeficiency virus 1, MT2, read-out: T332S/V362I/pr41G EC50. The procedure, abridged:
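Multiple-cycle susceptibility: MT-2 cells, 10,000 per well, exposed to 3-fold compound dilutions at 1% DMSO after infection with luciferase-normalized inoculum. Virus: NL4-3-derived Renilla reporter (Gag P373S) with Gag T332S/V362I and protease R41G. Readout Renilla luciferase after 4–5 days, 37 °C.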

[4] abbreviates: Human immunodeficiency virus 1, MT2, read-out: WT EC50.

As for `C=C(C)[C@@H]1CC[C@]2(NC[C@H](O)COC)CC[C@]3(C)[C@H](CC[C@@H]4[C@@]5(C)CC=C(C6=CC[C@](COc7ncccc7C(N)=O)(C(=O)O)CC6)C(C)(C)[C@@H]5CC[C@]43C)[C@@H]12` [Example A12, (R)-1-(((3-carbamoylpyridin-2-yl)oxy)methyl)-4-((1R,3aS,5aR,5bR,7aR,11aS,11bR,13aR,13bR)-3a-(((S)-2-hydroxy-3-methoxypropyl)amino)-5a,5b,8,8,11a-pentamethyl-1-(prop-1-en-2-yl)-2,3,3a,4,5,5a,5b,6,7,7a,8,11,11a,11b,12,13,13a,13b-octadecahydro-1H-cyclopenta[a]chrysen-9-yl)cyclohex-3-enecarboxylic acid], the EC50 in assay [1] (setting [4]) stood at 2 nM; in assay [2] it was 69 nM; in the assay with gag V370A/ΔT371 virus it was 59 nM; in assay [3], 59 nM.

Consider `C=C(C)[C@@H]1CC[C@]2(NCCN3CCS(=O)(=O)CC3)CC[C@]3(C)[C@H](CC[C@@H]4[C@@]5(C)CC=C(C6=CCC(CCOc7cc(Br)ccn7)(C(=O)O)CC6)C(C)(C)[C@@H]5CC[C@]43C)[C@@H]12` (stereo partly drawn) [Example A33, 1-(2-((4-bromopyridin-2-yl)oxy)ethyl)-4-((1R,3aS,5aR,5bR,7aR,11aS,11bR,13aR,13bR)-3a-((2-(1,1-dioxidothiomorpholino)ethyl)amino)-5a,5b,8,8,11a-pentamethyl-1-(prop-1-en-2-yl)-2,3,3a,4,5,5a,5b,6,7,7a,8,11,11a,11b,12,13,13a,13b-octadecahydro-1H-cyclopenta[a]chrysen-9-yl)cyclohex-3-ene-1-carboxylic acid], for which the EC50 is 6 nM in assay [1] (setting [4]), 1790 nM in assay [2], greater than 50 nM in the assay on gag V370A/ΔT371 virus and 419 nM in assay [3].

Regarding `C=C(C)[C@@H]1CC[C@]2(NCC[C@]3(O)CC[C@H](S(C)(=O)=O)CC3)CC[C@]3(C)[C@H](CC[C@@H]4[C@@]5(C)CC=C(C6=CC[C@](COc7ncccc7C#N)(C(=O)O)CC6)C(C)(C)[C@@H]5CC[C@]43C)[C@@H]12` [Example A6, (R)-1-(((3-cyanopyridin-2-yl)oxy)methyl)-4-((1R,3aS,5aR,5bR,7aR,11aS,11bR,13aR,13bR)-3a-((2-((1r,4S)-1-hydroxy-4-(methylsulfonyl)cyclohexyl)ethyl)amino)-5a,5b,8,8,11a-pentamethyl-1-(prop-1-en-2-yl)-2,3,3a,4,5,5a,5b,6,7,7a,8,11,11a,11b,12,13,13a,13b-octadecahydro-1H-cyclopenta[a]chrysen-9-yl)cyclohex-3-enecarboxylic acid], the EC50 came to 2 nM in assay [1] (setting [4]), 5 nM in assay [2], 8 nM in the assay with gag V370A/ΔT371 virus and 8 nM in assay [3].

As to `C=C(C)[C@@H]1CC[C@]2(NC[C@H](O)C(=O)O)CC[C@]3(C)[C@H](CC[C@@H]4[C@@]5(C)CC=C(C6=CC[C@](COc7ncccc7C(N)=O)(C(=O)O)CC6)C(C)(C)[C@@H]5CC[C@]43C)[C@@H]12` [Example A18], the EC50 came to 8 nM in assay [1] (setting [4]), 192 nM in assay [2], 27 nM in the assay on gag V370A/ΔT371 virus and 27 nM in assay [3].

For the compound `C=C(C)[C@@H]1CC[C@]2(NC[C@@H](O)CO)CC[C@]3(C)[C@H](CC[C@@H]4[C@@]5(C)CC=C(C6=CC[C@](COc7ncccc7C(N)=O)(C(=O)O)CC6)C(C)(C)[C@@H]5CC[C@]43C)[C@@H]12` [Example A8, (R)-1-(((3-carbamoylpyridin-2-yl)oxy)methyl)-4-((1R,3aS,5aR,5bR,7aR,11aS,11bR,13aR,13bR)-3a-(((R)-2,3-dihydroxypropyl)amino)-5a,5b,8,8,11a-pentamethyl-1-(prop-1-en-2-yl)-2,3,3a,4,5,5a,5b,6,7,7a,8,11,11a,11b,12,13,13a,13b-octadecahydro-1H-cyclopenta[a]chrysen-9-yl)cyclohex-3-enecarboxylic acid], the EC50 turned out to be 4 nM in assay [1] (setting [4]), 176 nM in assay [2], 23 nM in the assay on gag V370A/ΔT371 virus and 23 nM in assay [3].

Take `C=C(C)[C@@H]1CC[C@]2(NCCN3CCS(=O)(=O)CC3)CC[C@]3(C)[C@H](CC[C@@H]4[C@@]5(C)CC=C(C6=CC[C@](COc7ncccc7C#N)(C(=O)O)CC6)C(C)(C)[C@@H]5CC[C@]43C)[C@@H]12` [Example 23, (R)-1-(((3-cyanopyridin-2-yl)oxy)methyl)-4-((1R,3aS,5aR,5bR,7aR,11aS,11bR,13aR,13bR)-3a-((2-(1,1-dioxidothiomorpholino)ethyl)amino)-5a,5b,8,8,11a-pentamethyl-1-(prop-1-en-2-yl)-2,3,3a,4,5,5a,5b,6,7,7a,8,11,11a,11b,12,13,13a,13b-octadecahydro-1H-cyclopenta[a]chrysen-9-yl)cyclohex-3-ene-1-carboxylic acid]: the EC50 in assay [1] (setting [4]) was 2 nM; in assay [2], greater than 50 nM; in the assay with gag V370A/ΔT371 virus it was less than 50 nM; in assay [3] it was 6 nM.

As to `C=C(C)[C@@H]1CC[C@]2(NCCN3CCS(=O)(=O)CC3)CC[C@]3(C)[C@H](CC[C@@H]4[C@@]5(C)CC=C(C6=CCC(COCc7ccccc7C#N)(C(=O)O)CC6)C(C)(C)[C@@H]5CC[C@]43C)[C@@H]12` (some centres unmarked) [reference compound], the EC50 in assay [1] (Human immunodeficiency virus 1, read-out: WT EC50) came to 3 nM. For the same compound, the EC90 in assay [2] (Human immunodeficiency virus 1, read-out: A364V EC90) was found to be 228 nM; with gag V370A/ΔT371 virus (Human immunodeficiency virus 1, read-out: V370A/ΔT371 EC90) it was 2420 nM; in assay [3] (Human immunodeficiency virus 1, read-out: T332S/V362I/prR41G EC90), 2420 nM.

In the case of `C=C(C)[C@@H]1CC[C@]2(NCCN3CCS(=O)(=O)CC3)CC[C@]3(C)[C@H](CC[C@@H]4[C@@]5(C)CC=C(C6=CCC(CCOc7cc(C)sn7)(C(=O)O)CC6)C(C)(C)[C@@H]5CC[C@]43C)[C@@H]12` (stereo partly drawn) [Example A21, 4-((1R,3aS,5aR,5bR,7aR,11aS,11bR,13aR,13bR)-3a-((2-(1,1-dioxidothiomorpholino)ethyl)amino)-5a,5b,8,8,11a-pentamethyl-1-(prop-1-en-2-yl)-2,3,3a,4,5,5a,5b,6,7,7a,8,11,11a,11b,12,13,13a,13b-octadecahydro-1H-cyclopenta[a]chrysen-9-yl)-1-(2-((5-methylisothiazol-3-yl)oxy)ethyl)cyclohex-3-ene-1-carboxylic acid], the EC50 was determined as 3 nM in assay [1] (setting [4]), 17 nM in assay [2], 18 nM in the assay on gag V370A/ΔT371 virus and 18 nM in assay [3].

`C=C(C)[C@@H]1CC[C@]2(NCCN3CCS(=O)(=O)CC3)CC[C@]3(C)[C@H](CC[C@@H]4[C@@]5(C)CC=C(C6=CCC(COc7cccc(C(N)=O)n7)(C(=O)O)CC6)C(C)(C)[C@@H]5CC[C@]43C)[C@@H]12` (stereo partly drawn) [Example 40, 1-(((6-carbamoylpyridin-2-yl)oxy)methyl)-4-((1R,3aS,5aR,5bR,7aR,11aS,11bR,13aR,13bR)-3a-((2-(1,1-dioxidothiomorpholino)ethyl)amino)-5a,5b,8,8,11a-pentamethyl-1-(prop-1-en-2-yl)-2,3,3a,4,5,5a,5b,6,7,7a,8,11,11a,11b,12,13,13a,13b-octadecahydro-1H-cyclopenta[a]chrysen-9-yl)cyclohex-3-ene-1-carboxylic acid]: the EC50 was 4 nM in assay [1] (setting [4]), 271 nM in assay [2], 233 nM in the assay with gag V370A/ΔT371 virus and 233 nM in assay [3].

Regarding `C=C(C)[C@@H]1CC[C@]2(NCCN3CCS(=O)(=O)CC3)CC[C@]3(C)[C@H](CC[C@@H]4[C@@]5(C)CC=C(C6=CCC(COc7nsc(=O)[nH]7)(C(=O)O)CC6)C(C)(C)[C@@H]5CC[C@]43C)[C@@H]12` (stereo partly drawn) [Example 14, 4-((1R,3aS,5aR,5bR,7aR,11aS,11bR,13aR,13bR)-3a-((2-(1,1-dioxidothiomorpholino)ethyl)amino)-5a,5b,8,8,11a-pentamethyl-1-(prop-1-en-2-yl)-2,3,3a,4,5,5a,5b,6,7,7a,8,11,11a,11 b,12,13,13a,13b-octadecahydro-1H-cyclopenta[a]chrysen-9-yl)-1-(((5-oxo-4,5-dihydro-1,2,4-thiadiazol-3-yl)oxy)methyl)cyclohex-3-ene-1-carboxylic acid], the EC50 in assay [1] (setting [4]) was 27 nM; in assay [2], greater than 50 nM; in the assay with gag V370A/ΔT371 virus, greater than 50 nM; in assay [3], greater than 50 nM.

Regarding `C=C(C)[C@@H]1CC[C@]2(NCCN3CCS(=O)(=O)CC3)CC[C@]3(C)[C@H](CC[C@@H]4[C@@]5(C)CC=C(C6=CCC(CCOc7ccnc(Cl)c7)(C(=O)O)CC6)C(C)(C)[C@@H]5CC[C@]43C)[C@@H]12` (stereo partly drawn) [Example A35, 1-(2-((2-chloropyridin-4-yl)oxy)ethyl)-4-((1R,3aS,5aR,5bR,7aR,11aS,11bR,13aR,13bR)-3a-((2-(1,1-dioxidothiomorpholino)ethyl)amino)-5a,5b,8,8,11a-pentamethyl-1-(prop-1-en-2-yl)-2,3,3a,4,5,5a,5b,6,7,7a,8,11,11a,11b,12,13,13a,13b-octadecahydro-1H-cyclopenta[a]chrysen-9-yl)cyclohex-3-ene-1-carboxylic acid], the EC50 is less than 50 nM in assay [1] (setting [4]), 233 nM in assay [2], 3000 nM with gag V370A/ΔT371 virus and greater than 50 nM in assay [3].
